Results taken from US6841577B2, “Pesticidal activity of plant essential oils and their constituents” (Ecosmart Technologies, Inc., priority 1999, dated 2005).

How the values were obtained:
American cockroach [1] = test: Lethal effect of injected test chemicals; assay type: in vivo; settings: dead/10
Protocol: Further studies were conducted to determine the LD 50 of purified naturally occurring plant essential oils and/or their constituents. […] Ten roaches per dose were used. Another group of ten roaches received the same volume of vehicle only (0.5 μl) and used as a control group. Mortality was recorded 24, 48, and 72 hours after exposure.

[2] = test system: octopamine receptor sites; test: 3H-OA binding to ventral nerve cord / synaptosomal membrane protein; set-up: species or system American cockroach (Periplaneta americana); settings: for cpm 3H-OA/500 μg protein: Table 1, solvent control 1280 ± 259
Protocol: Different concentrations of unlabeled octopamine (OA) (20, 30, 40, 50, 60, 100 ng) were tested on the binding activity as a positive control. Test chemicals were dissolved in acetone before the assay. Different concentrations of the test chemicals were added directly to the protein preparation from ventral nerve cord. The same amount of solvent (1 μl 0.1%) were added to the control samples. All assays with test chemicals were run in the presence and absence of 50 ng OA. All chemicals were added to the protein extract 20 min prior the addition of radio labeled ^3H-OA(100,000 cpm/sample). After 30 min at 24° C. of the addition of ^3H-OA, the reaction was stopped by the addition of ice-cold Tris buffer, and the samples were filtered through GF/C membrane using water vacuum. After two washes each with 5 ml Tris buffer, the membrane was removed, air dried and the radioactivity was counted in 4 ml liquid scintillation solution. The specific binding was calculated as the difference between the values in the presence and absence of unlabeled OA. All data are calculated as the mean±standard deviation of 5 assays.
Additional tests were conducted on radio labeled octopamine using other purified naturally occurring materials as given in Tables 2 and 3.

American cockroaches = test: Cross walk testing with eugenol in acetone or Isopar M; assay type: in vivo, American cockroach; set-up: KD (knockdown), of 5: unit not given beside the values
Protocol: Additional “cross walk” testing was conducted with eugenol. Table 18 provides data for 5% (by volume) eugenol in acetone and Table 19 provides data for 1% eugenol in acetone wherein five (5) American cockroaches were placed in the screened jars after the acetone had evaporated. IM=immobilized; KD=knockdown; D=dead; L=live (no effect).
Table 20 provides data for 5% (by volume) eugenol in 95% Isopar M and Table 21 provides data for 1% (by volume) eugenol in 99% Isopar M. Isopar M is an isoparaffinic hydrocarbon sold by Exxon Corporation.

American cockroach [3] = test: Cross walk jar test on pre-treated surface; assay type: in vivo; settings: Periplaneta americana, 24 h
Protocol: In the test, a known amount of the test material was dissolved in a known volume of acetone and applied to small jars and all inner bottom surfaces were covered. The bottom surface of each jar is approximately 250 cm^2. One hour after the acetone had completely evaporated, five American cockroaches were introduced to each jar. Control jars were treated exactly as above but with the known amount of acetone only.
The results of the “cross walk” jar tests are in Table 8 in which the “4-blend” was dispersed as an aerosol and a dust in the jar.
In this test, the acetone solution of the test material was placed in the jar and the roach inserted into the jar after the acetone had evaporated.
Mortality was measured 24 hours after exposure.
The “4-blend” and the individual constituents of the “4-blend” were tested using 10 cockroaches for each “cross walk” treatment. In addition, pyrethrins were tested separately and mixed with the various components.
A concentration of 100 mg/jar was used for each individual alone. In the co-treatment experiment without pyrethrins, 20 mg/jar for each chemical was used. In the cotreatment experiment with pyrethrins, 20 mg/jar for the naturally occurring plant material was used. Pyrethrins was used at 2 mg/jar. […] It was noted above that the mortality is dependent upon concentration. […] Some synergism is found between pyrethrins and either α-terpineol or benzyl alcohol.

[4] = test system: heart of American cockroach (octopamine receptors); test: Heartbeat after application to thoracic segment; assay type: in vivo; settings: mean ±SD of three roaches
Protocol: To further establish the effect of the purified naturally occurring plant essential oils and/or their constituents on the American cockroach, a 300 μg amount of the chemical was applied to the thoracic segment of an intact and alive American cockroach. The heart beats/30 seconds was measured. The heart of the cockroach is known to have a high concentration of octopamine receptors and the heart beat is considered an important measurement to indicate the effect of the applied chemicals to the octopamine receptors.

[5] = test system: 2nd instar green peach aphid nymphs; test: Cabbage leaf disc bioassay; assay type: in vivo
Protocol: A bioassay similar to that for S. litura larvae was used for additional larvae. Cabbage leaf discs were dipped in emulsified aqueous solutions, diluted 1:200 in water, on which 2nd instar green peach aphid nymphs were placed. For each treatment there was 10 aphids per disc with 5 replicates; each experiment was replicated in time (successive days) from 3-5 times. After 24 hours, aphids were reported as being (1) on the leaf disc and feeding; (2) alive, but walking off the disc; or (3) dead. In the field, aphids which cease feeding and abandon a host plant are very unlikely to survive.

[6] = 1% eugenol in 99% Isopar M, 2 min
[7] = 1% eugenol in 99% Isopar M, 5 min
[8] = 1% eugenol in 99% Isopar M, 45 min
[9] = 5% eugenol in 95% Isopar M, 2 min
[10] = 5% eugenol in 95% Isopar M, 5 min

C=CCc1ccc(O)c(OC)c1 [eugenol]
Mortality 24 hr after treatment (American cockroach [1]; 300 μg): 2/10 | Mortality 24 hr after treatment (American cockroach [1]; 400 μg): 3/10 | Mortality (American cockroach [1]; 500 μg/roach injected into thoracic and abdominal segments, 24 hr.): 6/10 | Mortality (American cockroach [1]; 500 μg/roach injected, 48 hr.): 6/10 | Mortality (American cockroach [1]; 500 μg/roach injected, 72 hr., control 1/10): 6/10 | Mortality 24 hr after treatment (American cockroach [1]; 500 μg): 5/10 | Mortality 24 hr after treatment (American cockroach [1]; 600 μg): 8/10 | Mortality 24 hr after treatment (American cockroach [1]; 700 μg): 9/10 | cpm 3H-OA/500 μg protein ([2]; 300 ng test chemical): 818 ± 93 cpm 3H-OA/500 μg protein | cpm 3H-OA/500 μg protein ([2]; 500 ng test chemical): 730 ± 59 cpm 3H-OA/500 μg protein | cpm 3H-OA/500 μg protein ([2]; 700 ng test chemical): 453 ± 39 cpm 3H-OA/500 μg protein | cpm 3H-OA/500 μg protein ([2]; 1000 ng test chemical): 226 ± 15 cpm 3H-OA/500 μg protein | cpm 3H-OA/500 μg protein ([2]; 1500 ng test chemical): 200 ± 17 cpm 3H-OA/500 μg protein | classification with respect to octopamine receptor sites (OAR) ([2]; based on the binding data of Tables 1-3): high OAR antagonists | D (dead), of 5 (American cockroaches; [6]): 2/5 | IM (immobilized), of 5 (American cockroaches; [6]): 1/5 | KD (knockdown), of 5 (American cockroaches; [6]): 1/5 | D (dead), of 5 (American cockroaches; [7]): 3/5 | IM (immobilized), of 5 (American cockroaches; [7]): 1/5 | IM (immobilized), of 5 (American cockroaches; 1% eugenol in 99% Isopar M, 15 min): 2/5 IM | IM (immobilized), of 5 (American cockroaches; 1% eugenol in 99% Isopar M, 30 min): 2/5 IM | D (dead), of 5 (American cockroaches; [8]): 4/5 | IM (immobilized), of 5 (American cockroaches; [8]): 1/5 | IM (immobilized), of 5 (American cockroaches; 1% eugenol in 99% Isopar M, 1 hr.): 1/5 IM | D (dead), of 5 (American cockroaches; 1% eugenol in 99% Isopar M, 1.5 hr.): 5/5 D | L (live, no effect), of 5 (American cockroaches; 1% eugenol in acetone, 2 min): 5/5 L | L (live, no effect), of 5 (American cockroaches; 1% eugenol in acetone, 30 min): 5/5 L | IM (immobilized), of 5 (American cockroaches; 1% eugenol in acetone, 45 min): 3/5 IM | IM (immobilized), of 5 (American cockroaches; 1% eugenol in acetone, 1 hr.): 3/5 | KD (knockdown), of 5 (American cockroaches; 1% eugenol in acetone, 1 hr.): 1/5 | IM (immobilized), of 5 (American cockroaches; 1% eugenol in acetone, 1.5 hr.): 3/5 | KD (knockdown), of 5 (American cockroaches; 1% eugenol in acetone, 1.5 hr.): 1/5 | IM (immobilized), of 5 (American cockroaches; 1% eugenol in acetone, 2 hr.): 3/5 | KD (knockdown), of 5 (American cockroaches; 1% eugenol in acetone, 2 hr.): 1/5 | IM (immobilized), of 5 (American cockroaches; 1% eugenol in acetone, 4 hr.): 3/5 | KD (knockdown), of 5 (American cockroaches; 1% eugenol in acetone, 4 hr.): 1/5 | IM (immobilized), of 5 (American cockroaches; 1% eugenol in acetone, 24 hr., (KD/IM recover)): 2/5 IM (KD/IM recover) | D (dead), of 5 (American cockroaches; [9]): 2/5 | IM (immobilized), of 5 (American cockroaches; [9]): 1/5 | D (dead), of 5 (American cockroaches; [10]): 4/5 | IM (immobilized), of 5 (American cockroaches; [10]): 1/5 | D (dead), of 5 (American cockroaches; 5% eugenol in 95% Isopar M, 10 min): 5/5 D | IM (immobilized), of 5 (American cockroaches; 5% eugenol in acetone, 2 min): 1/5 IM | IM (immobilized), of 5 (American cockroaches; 5% eugenol in acetone, 5 min): 1/5 IM | IM (immobilized), of 5 (American cockroaches; 5% eugenol in acetone, 15 min): 3/5 IM | IM (immobilized), of 5 (American cockroaches; 5% eugenol in acetone, 30 min): 3/5 | KD (knockdown), of 5 (American cockroaches; 5% eugenol in acetone, 30 min): 1/5 | IM (immobilized), of 5 (American cockroaches; 5% eugenol in acetone, 45 min): 3/5 | KD (knockdown), of 5 (American cockroaches; 5% eugenol in acetone, 45 min): 1/5 | IM (immobilized), of 5 (American cockroaches; 5% eugenol in acetone, 1 hr.): 4/5 | KD (knockdown), of 5 (American cockroaches; 5% eugenol in acetone, 1 hr.): 1/5 | IM (immobilized), of 5 (American cockroaches; 5% eugenol in acetone, 1.5 hr.): 4/5 | KD (knockdown), of 5 (American cockroaches; 5% eugenol in acetone, 1.5 hr.): 1/5 | IM (immobilized), of 5 (American cockroaches; 5% eugenol in acetone, 2 hr.): 4/5 | KD (knockdown), of 5 (American cockroaches; 5% eugenol in acetone, 2 hr.): 1/5 | D (dead), of 5 (American cockroaches; 5% eugenol in acetone, 4 hr.): 4/5 | KD (knockdown), of 5 (American cockroaches; 5% eugenol in acetone, 4 hr.): 1/5 | D (dead), of 5 (American cockroaches; 5% eugenol in acetone, 24 hr.): 5/5 D | effectiveness as a pesticide for American cockroaches, in words (American cockroaches; 5% eugenol, in both modes of use (acetone, Isopar M)): highly effective | mortality at 100 mg (American cockroach [3]): 100% | Heart beat/30 sec 30 min after treatment ([4]; 300 μg applied to thoracic segment): 24 ± 1 beat/30 sec | Heart beat/30 sec before treatment ([4]; baseline of the same roaches): 55 ± 3 beat/30 sec | activity on green peach aphid nymphs, in words ([5]; 1:200 dilution): somewhat more active | Percentage of aphids Walking (off disc) ([5]; diluted 1:200 in water, after 24 hours, n = 250, Table 16, control 23.4): 38.3% | Percentage of aphids Dead ([5]; diluted 1:200 in water, after 24 hours, n = 250, Table 16, control 24.8): 44.3% | Percentage of aphids Feeding ([5]; diluted 1:200 in water, after 24 hours, n = 250, Table 16, control 51.7): 17.7%
